This is an account of results in patent US11278526B2, “Compounds and methods for treating lupus” (RECEPTOS LLC, priority 2016, dated 2022).

“Also recorded” adds a separate entry of the source.

Assay type in all cases: in vivo
Assay [1] relates to NZBWF1 mice. Briefly: Proteinuria scores (urine dip sticks) in NZBWF1 SLE mouse model. The conditions noted are these: for Proteinuria scores relative to vehicle: 3.0 mg/kg PO QD; for Proteinuria scores compared to vehicle: 0.3, 1.0 and 3.0 mg/kg PO QD. From the text: Six groups of NZBWF1 mice (Jackson Laboratories, stock #100008) were used in the study and were acclimated to the research facility for 7 weeks prior to the start of the study. Weekly measurements of proteinuria (excess serum proteins present in the urine) and body weight began at 20 weeks of age. At 23 weeks of age, the mice were assigned to groups in a balanced manner in order to achieve average body weight and average proteinuria measurements across the groups. One “naive” group consisting of 10 mice was euthanized at the start of treatment and used as a source of tissue for analysis. Treatment began at 23 weeks of age.
The three groups dosed with compound 148 received 0.3, 1.0, and 3.0 mg/kg PO QD, respectively (20 mice per dosage). Surviving animals were sacrificed at 42 weeks. […] Disease development was evaluated as disclosed in the following examples.
High levels of proteinuria are a strong indicator of SLE. […] Proteinuria was expressed as a score from 0 to 4 (0=no protein; 1=traces of protein (<30 mg/dL); 2=30-100 mg/dL; 3=100-500 mg/dL; 4=>500 mg/dL).
As in Example 3, proteinuria was measured weekly beginning at 20 weeks using urine dip sticks (Roche Diagnostics Chemstrip 2GP, cat. no. 11895397160, per manufacturer's protocol). Proteinuria was expressed as a score from 0 to 4 (0=no protein; 1=traces of protein (<30 mg/dL); 2=30-100 mg/dL; 3=100-500 mg/dL; 4=>500 mg/dL). […] (In this and the following experiments, the number of mice per group was approximately 20, and statistics were determined by one-way ANOVA with Dunnett's comparison.)

The subject of assay [2] is NZBWF1 mice. In words: Spleen weight at 42 weeks. The method, then:
To determine the effects of compound 148 on inflammatory infiltrate in the spleen, spleens were weighed at 42 weeks. […] Splenocyte suspensions were then prepared. RBCs were lysed and splenocytes were counted.
To determine the effects of compound 5 on inflammatory infiltrate in the spleen, spleens were weighed at 42 weeks. […] The 3 mg/kg dose of compound 5 trended lower indicating fewer inflammatory infiltrates in this organ. Splenocyte suspensions were prepared for all three doses. RBCs were lysed and splenocytes were counted.

In assay [3] the test system is NZBWF1 mice. Briefly: Survival in NZBWF1 SLE mouse model. The conditions noted are these: 0.3, 1.0, 3.0 mg/kg PO QD, Logrank p=0.0229, 0.0308, 0.0201. The method, then: As in Example 2, compound 5 was tested for efficacy in the same NZB×NZW F1 (“NZBWF1”) mouse model for SLE as compound 148. Six groups of NZBWF1 mice (Jackson Laboratories, stock #100008) were used in the study and were acclimated to the research facility for 6 weeks prior to the start of the study. Weekly measurements of proteinuria (excess serum proteins present in the urine) and body weight began at 20 weeks of age. At 22 weeks of age, the mice were assigned to groups in a balanced manner in order to achieve average body weight and average proteinuria measurements across the groups. One “naive” group consisting of 10 mice was euthanized at the start of treatment and used as a source of tissue for analysis. Treatment began at 22 weeks of age.
The five treatment groups were administered cyclophosphamide (positive control, 20 mice; introduced gradually to reduce toxicity (IP, once a week, 10 mg/kg at Weeks 22 and 23 and 50 mg/kg from Week 24 to the end of the study)), vehicle (negative control, 20 mice), or compound 5 (three groups of 20 mice), beginning at 22 weeks of age and observed over the course of 20 weeks. The three groups dosed with compound 5 received 0.3, 1.0, and 3.0 mg/kg PO QD, respectively (20 mice per dosage). Surviving animals were sacrificed at 42 weeks. […] Disease development was evaluated as disclosed in the following examples.

For a further assay, the system named is IFNα. In words: Serum IFNα by ELISA. The conditions noted are these: NZBWF1 mice; all treatment groups 0.3, 1.0, 3.0 mg/kg PO QD; weeks 23, 29, 36, 42; assay sensitivity 7.48 pg/ml. The method, then:
(§1) As discussed above, IFNAR1 (Interferon alpha receptor 1) and its ligand IFNα are important modulators of lupus-associated autoimmune response in humans. Serum IFNα was measured by ELISA (eBioscience kit) at 23, 29, 36, and 42 weeks (FIG. 17). Assay sensitivity was 7.48 pg/ml (dotted line). […] However, several samples at multiple time points were below the sensitivity of the assay (data not shown), consistent with reports that the NZBWF1 model has a weak IFNα signature. To determine whether compound 148 affected IFNAR1 expression, percent surface expression and MFI expression were measured in pDC cells at termination (FIGS. 18A and 18B, respectively).
Background: An ELISA detects its analyte on a solid surface through an enzyme-linked reagent.

The test system of the next assay is IFN-inducible genes. Briefly: mRNA expression of genes responsive to type-1 interferon signaling. To be noted: NZBWF1 mice; 3 mpk PO.
Assay [4] concerns inflammatory and immune response genes. In words: Kidney mRNA levels of inflammatory and immune response genes (QuantiGene Multiplex Assay). The conditions noted are these: NZBWF1 mice; 3 mpk PO; n=5. On the procedure:
As explained above, SLE is characterized by aberrant recognition of healthy “self” tissue as antigenic. The resulting immune response is characterized by inflammation. To measure SLE status, mRNA levels were measured for an array of inflammatory and immune response genes from kidneys collected at termination or week 23 (naïve) and stored in RNAlater (n=5). mRNA was quantified using QuantiGene Multiplex Assay.

Assay [5] has as its system CD4+ T cells, CD8+ T cells, and CD19+ B cells. In words: Peripheral lymphocyte counts from whole blood by flow cytometry. The conditions noted are these: NZBWF1 mice. The method, then: Lymphocyte counts were measured from whole blood taken at 23, 31, and 36.5 weeks using flow cytometry. Cells were gated for CD4+ T cells, CD8+ T cells, and CD19+ B cells. […] Serum blood urea nitrogen (BUN) was also measured at termination to assess kidney function.

The next assay relates to IFNAR1. In words: IFNAR1 expression in splenic pDC cells. To be noted: NZBWF1 mice, at termination, after five months of treatment. The method, then:
as §1

As to `CC(C)Oc1ccc(-c2nc(-c3cccc4c3CC[C@@H]4NCCO)no2)cc1C#N` [compound 5, (S)-5-(3-(1-(2-hydroxyethylamino)-2,3-dihydro-1H-inden-4-yl)-1,2,4-oxadiazol-5-yl)-2-isopropoxy benzonitrile], in the assay with NZBWF1 mice [1] (weeks 22-42), the “Proteinuria scores relative to vehicle” value was “significant improvement relative to vehicle” and the “Proteinuria scores compared to vehicle” value is given as “lower proteinuria scores in a dose-dependent fashion”. Moreover, the “Spleen weight relative to vehicle” value with NZBWF1 mice [2] (3 mg/kg PO QD) was “trended lower”. In addition, the “Spleen weight relative to vehicle” value in the assay on NZBWF1 mice [2] (any dose 0.3, 1.0, 3.0 mg/kg PO QD) is “lower, but not significant relative to vehicle”. Moreover, the “Survival compared to vehicle” value in the assay on NZBWF1 mice [3] is “improved survival compared to vehicle treated animals”.
As for `CC(C)Oc1ccc(-c2nc(-c3cccc4c3CC[C@@H]4N)no2)cc1C#N` [compound 148, (S)-5-(3-(1-amino-2,3-dihydro-1H-inden-4-yl)-1,2,4-oxadiazol-5-yl)-2-isopropoxy-benzonitrile], the “Serum IFNα levels compared to vehicle” value with IFNα is “lower serum IFNα levels compared to vehicle”. For the same compound, the “Proteinuria scores relative to vehicle” value in the assay on NZBWF1 mice [1] (weeks 23-42, p<0.05, 3 mg/kg) is “significant improvement relative to vehicle; also recorded: efficacy similar to cyclophosphamide”. Further, the “Proteinuria scores compared to vehicle” value in the assay on NZBWF1 mice [1] (weeks 23-42) is reported as “lower proteinuria scores in a dose-dependent fashion”. Besides, the “Expression levels of IFN-inducible genes (mRNA)” value in the assay on IFN-inducible genes is reported as “no significant effect”. Moreover, in assay [4], the “Kidney mRNA level of CCL5 relative to control” value was “decreased levels”, the “Kidney mRNA level of CXCL9 relative to control” value was “decreased levels”, the “Kidney mRNA level of CXCL10 relative to control” value was “decreased levels” and the “Kidney mRNA level of IL-1β relative to control” value is on record as “decreased levels”. Further, in assay [4], the “Kidney mRNA level of IL-10 relative to control” value is given as “decreased levels” and the “Kidney mRNA level of TNFSF13b/BAFF relative to control” value is on record as “decreased levels”. In the assay on NZBWF1 mice [2] (all groups 0.3, 1.0, 3.0 mg/kg PO QD), the “Spleen weight relative to vehicle” value is “significantly lower”. For the same compound, the “Reduction of overall lymphocyte counts relative to vehicle” value in assay [5] (whole blood at 23, 31 and 36.5 weeks, all three doses (0.3, 1.0, 3.0 mg/kg PO QD), p<0.05) is listed as more than 90%. Also, in assay [5] (whole blood, flow cytometry), the “CD4+ T cell and CD8+ T cell counts relative to cyclophosphamide” value is on record as “Significant reductions”. For the same compound, in the assay with IFNAR1, the “MFI of IFNAR1 expression in pDC cells” value is “very little difference between the groups” and the “Percent surface expression of IFNAR1 in pDC cells” value is listed as “very little difference between the groups”.
